# Results as given in patent US9028856B2, “Synergistic pesticide compositions” (priority 2008, dated 2015).
# Read-outs that look alike come from different tables or passages of the source.
# What was measured:
# Format in all cases: in vivo
# [1] = test system: susceptible/normal German cockroach (Monheim strain), Blattella germanica; assay: Knockdown/mortality of male cockroaches under continuous exposure on treated glazed tile; conditions: ethiprole 0.01% in the absence of the adjuvant (FIG. 55)
# Method in brief: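 Male cockroaches continuously exposed on treated glazed tile, dried overnight before exposure; at least three replicates. Knockdown/mortality scored at intervals from 5 or 10 min, over runs lasting 20 min to 24 h depending on test.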
# [2] = test system: Cimex lectularius (adults); assay: Efficacy on glazed tiles (acetone solutions or EC formulations), continuous exposure; conditions: Cimex lectularius, on tiles, insecticide alone (imidacloprid 50 mg/m^2, Bendiocarb 50 mg/m^2, Ethiprole 10 mg/m^2, DTM 1 mg/m^2), no Compound A, read-out: % KD and Mortality
# Protocol: Test Insects: Culex quinquefasciatus (adults) (3 minutes exposure time according to USDA Petri Dish Method), Musca domestica (adults), susceptible and resistant strain, Blattella germanica (males), Cimex lectularius (adults) (all: continuous exposure time)
# Application: The EC formulation (diluted with water 1:9) were applied as 0.85 ml solutions onto glazed tiles (15 cm×15 cm)
# Evaluation: Knock down after 15, and 30 minutes, 1, 2, 3, 4, 6 and 24 hours (mortality)
# Test Insects: Culex quinquefasciatus (adults) (3 minutes exposure time according to USDA Petri Dish Method), Cimex lectularius (adults), Acheta domesticus (middle nymphs) (both: continuous exposure time)
# Application: The active ingredients were applied as 1 ml acetone solutions onto glazed tiles (15 cm×15 cm)
# (§1) Evaluation: Knock down after 3, 9 (mosquitoes only), 15, and 30 minutes, 1, 2, 3, 4 and 24 hours (mortality)
# Test Insects: Culex quinquefasciatus (adults) (3 minutes exposure time according to USDA Petri Dish Method), Cimex lectularius (adults), (continuous exposure time)
# Test Insects: Cimex lectularius, Culex quinquefasciatus, Musca domestica (all adults, susceptible strains)
# Application: The active ingredients were applied as 1 ml acetone solutions onto glazed tiles (15 cm×15 cm), continuous exposure time
# [3] = test system: Musca domestica, susceptible strain WHO(N); assay: Efficacy of formulations on surfaces (glazed/unglazed tiles), house flies, continuous exposure; conditions: Table 114; 0.02% = 10 mg Ethiprole/m^2 on glazed tiles; EC formulation; continuous exposure
# [4] = test system: Blattella germanica (males, susceptible); assay: Efficacy of EC formulations on glazed/unglazed tiles, continuous exposure; conditions: 0.02% = 10 mg Ethiprole/m^2 on glazed tiles, EC formulation
# Protocol: All surfaces were provided with talcum-coated glass rings (diameter 9.5 cm, height 5.5 cm) one day later.
# The test insects were anesthetized with CO2, 20 individuals were placed onto the treated surfaces and the glass ring was covered with wire gauze ring. […]
# Each test consisted of at least one replicate and any additional replicates are noted. […]
# Test Insects: Culex quinquefasciatus (adults, susceptible) (3 minutes exposure time according to USDA Petri Dish Method), Musca domestica (adults, susceptible and resistant), Blattella germanica (males, susceptible) (both: continuous exposure time)
# Formulations: Insecticide with or without 10% Compound A (as EC), to be diluted with water (1 part formulation+9 parts water)
# Application: 1 ml of the diluted formulations was applied by pipette onto glazed tiles (15×15 cm)
# as §1
# [5] = test system: Red Imported Fire ant (RIFA), Solenopsis invicta; assay: Knockdown/mortality of ant workers under continuous exposure on treated glazed tile; conditions: ethiprole 0.01% in the absence of the adjuvant (FIG. 54)
# Text: Treatments were allowed to dry overnight. […] Treatments were replicated minimum three times.
# Treatments were allowed to dry overnight. […] Treatments were replicated a minimum of three times.
# [6] = test system: Musca domestica, resistant strain Reichswald; assay: Efficacy of formulations on surfaces (glazed/unglazed tiles), house flies, continuous exposure; conditions: Table 115; 0.02% = 10 mg Ethiprole/m^2 on glazed tiles; EC formulation; continuous exposure
compound,measurement,setting,value
CC[S+]([O-])c1c(C#N)nn(-c2c(Cl)cc(C(F)(F)F)cc2Cl)c1N (stereo not drawn) [ethiprole],mortality from 5 to 25 hours,[1],5-15%
same,mortality at 10 mg/m2,[2]; 15′,0%
same,mortality at 10 mg/m2,[2]; 1 h,0%
same,mortality at 10 mg/m2,[2]; 2 h,10%
same,mortality at 10 mg/m2,[2]; 3 h,10%
same,mortality at 10 mg/m2,[2]; 4 h,10%
same,mortality at 10 mg/m2,[2]; 6 h,70%
same,mortality at 10 mg/m2,[2]; 24 h,100%
same,% KD and Mortality 15′,[3],0%
same,% KD and Mortality 30′,[3],0%
same,% KD and Mortality 1 h,[3],0%
same,% KD and Mortality 2 h,[3],5%
same,% KD and Mortality 3 h,[3],15%
same,% KD and Mortality 4 h,[3],15%
same,% KD and Mortality 6 h,[3],25%
same,% KD and Mortality 24 h,[3],95%
same,% KD and Mortality 15′,[4],0%
same,% KD and Mortality 30′,[4],0%
same,% KD and Mortality 1 h,[4],0%
same,% KD and Mortality 2 h,[4],80%
same,% KD and Mortality 3 h,[4],100%
same,% KD and Mortality 4 h,[4],100%
same,% KD and Mortality 6 h,[4],100%
same,% KD and Mortality 24 h,[4],100%
same,mortality in 3 hours,[5],< 5%
same,% KD and Mortality 15′,[6],0%
same,% KD and Mortality 30′,[6],0%
same,% KD and Mortality 1 h,[6],0%
same,% KD and Mortality 2 h,[6],0%
same,% KD and Mortality 3 h,[6],0%
same,% KD and Mortality 4 h,[6],10%
same,% KD and Mortality 6 h,[6],15%
same,% KD and Mortality 24 h,[6],60%
